From US7557134B2, “N-(heteroaryl)-1H-indole-2-carboxamide derivatives and their use as vanilloid TRPV1 receptor ligands” (Sanofi-Aventis, priority 2005, dated 2009)
Where a name gives a salt, the structure may show the parent alone.

Experiments:
TRPV1 receptor = target: T1, TRPV1 receptor (Rattus norvegicus, UniProt O35433); test: Test of inhibition of the current induced with capsaicin on rat DRGs (whole-cell patch-clamp); type: cell-based; conditions: DRG neuron; compound 1 nM; capsaicin response 300 nM; rat DRG neurons
T1 construct: The neurons of the DRG naturally express the TRPV1 receptor; endogenous in cells; host or cells: primary culture of newborn rat dorsal root ganglion neurons
Experimental: Test of Inhibition of the Current Induced with Capsaicin on rat DRGs
• Primary culture of rat dorsal root ganglion (DRG) cells:
The neurons of the DRG naturally express the TRPV1 receptor.
The primary cultures of newborn rat DRGs are prepared using 1-day-old rats. Briefly, after dissection, the ganglions are trypsinized and the cells dissociated by mechanical trituration. The cells are resuspended in an Eagle basal culture medium containing 10% fetal calf serum, 25 mM KCl, 2 mM glutamine, 100 μg/ml gentamicin and 50 ng/ml of NGF, and then deposited on glass slides coated with laminin (0.25×10^6 cells per slide), which are then placed in Corning 12-well dishes. The cells are incubated at 37° C. in a humidified atmosphere containing 5% CO2 and 95% air. Cytosine β-D-arabinoside (1 μM) is added 48 hours after culturing, to prevent the growth of non-neuronal cells. The slides are transferred into experimental chambers for the patch-clamp studies after 7-10 days of culturing.
The measuring chambers (volume 800 μl) containing the cell preparation are placed on the platform of an inverted microscope (Olympus IMT2) equipped with Hoffman optics (Modulation Contrast, New York) and observed at a magnification of 400×. The chambers are continuously gravity-influxed (2.5 ml/min) using a solution distributor accepting 8 inlets and whose sole outlet, consisting of a polyethylene tube (aperture 500 μm), is placed less than 3 mm from the cell under study. The “whole cell” configuration of the patch-clamp technique was used. […] The overall currents (membrane potential set at […]) are recorded with an Axopatch 1 D amplifier (Axon Instruments, Foster city, Calif.), connected to a PC running the Pclamp8 software (Axon Instrument). The current plots are recorded on paper and simultaneously digitized (sampling frequency 15 to 25 Hz) and acquired on the hard drive of the PC.
The application of a 300 nM capsaicin solution induces on the DRG cells (voltage set at −70 mV) an entering cationic current. […] The results are expressed as a percentage of inhibition of the control capsaicin response.

T1 sequence (O35433 whole entry): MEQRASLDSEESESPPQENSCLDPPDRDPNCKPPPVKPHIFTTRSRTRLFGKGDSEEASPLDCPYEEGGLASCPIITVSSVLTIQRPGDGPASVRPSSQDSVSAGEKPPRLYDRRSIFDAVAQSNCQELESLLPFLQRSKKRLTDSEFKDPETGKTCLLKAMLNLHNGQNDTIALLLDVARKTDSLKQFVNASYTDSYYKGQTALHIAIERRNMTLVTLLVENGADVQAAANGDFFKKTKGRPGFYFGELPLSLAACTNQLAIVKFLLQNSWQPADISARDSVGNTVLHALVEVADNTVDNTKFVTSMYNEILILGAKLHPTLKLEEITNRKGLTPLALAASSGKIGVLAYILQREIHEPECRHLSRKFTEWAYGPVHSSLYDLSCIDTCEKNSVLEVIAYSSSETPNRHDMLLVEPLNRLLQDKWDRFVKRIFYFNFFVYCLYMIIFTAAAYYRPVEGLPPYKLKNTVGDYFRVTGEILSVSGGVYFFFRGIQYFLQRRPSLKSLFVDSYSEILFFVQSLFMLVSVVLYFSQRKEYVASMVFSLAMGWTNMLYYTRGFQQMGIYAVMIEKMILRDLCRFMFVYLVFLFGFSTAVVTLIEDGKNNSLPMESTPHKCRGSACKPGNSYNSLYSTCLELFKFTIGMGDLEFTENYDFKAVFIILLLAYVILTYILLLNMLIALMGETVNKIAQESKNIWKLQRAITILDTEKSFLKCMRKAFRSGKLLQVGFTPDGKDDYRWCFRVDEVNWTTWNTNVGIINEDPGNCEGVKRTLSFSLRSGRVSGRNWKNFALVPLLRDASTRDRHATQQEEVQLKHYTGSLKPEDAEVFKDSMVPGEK

melting point [°C]	SMILES	inhibition at 0.001 µM (TRPV1 receptor) [%]
210 to 211	Cn1ncc2cc(NC(=O)c3cc4cc(F)ccc4n3Cc3cccc(F)c3)ccc21	
249 to 250	O=C1Cc2cc(NC(=O)c3cc4cc(F)ccc4n3Cc3cccc(F)c3)ccc2N1 [Compound 42, N-(2-oxoindolin-5-yl)-5-fluoro-1-[(3-fluorophenyl)methyl]-1H-indole-2-carboxamide]	
281 to 282	Cc1nc2cc(NC(=O)c3cc4cc(F)ccc4n3Cc3cccc(F)c3)ccc2n1C	
222 to 224	O=C(Nc1ccc2ocnc2c1)c1cc2ccccc2n1-c1cccc(C(F)(F)F)c1 [Compound 17, N-(benzoxazol-5-yl)-1-[3-(trifluoromethyl)phenyl]-1H-indole-2-carboxamide]	
188 to 189	O=C(Nc1ccc2nccnc2c1)c1cc2cc(F)ccc2n1Cc1cccc(F)c1	
214 to 215	CS(=O)(=O)N1CCc2cc(NC(=O)c3cc4cc(C(F)(F)F)ccc4n3Cc3cccc(F)c3)ccc21 [Compound 31, N-(1-methylsulfonylindolin-5-yl)-5-trifluoromethyl-1-[(3-fluorophenyl)methyl]-1H-indole-2-carboxamide]	
195 to 197	Cn1cnc2c(NC(=O)c3cc4cc(F)ccc4n3Cc3cccc(F)c3)cccc21	
198 to 200	CC1C(=O)NOc2cc(NC(=O)c3cc4ccccc4n3-c3cccc(C(F)(F)F)c3)ccc21 (stereo not drawn) [Compound 5, N-(4-methyl-3-oxo-2H-benzoxazin-7-yl)-1-[3-(trifluoromethyl)phenyl]-1H-indole-2-carboxamide]	
275 to 280	O=C(Nc1ccc2nc[nH]c2c1)c1cc2cc(F)ccc2n1Cc1cccc(F)c1 (as salt: HCl)	
244 to 246	O=C1Cc2cc(NC(=O)c3cc4cc(C(F)(F)F)ccc4n3Cc3cccc(F)c3)ccc2N1 [Compound 25, N-(2-oxoindolin-5-yl)-5-trifluoromethyl-1-[(3-fluorophenyl)methyl]-1H-indole-2-carboxamide]	
215 to 216	Cn1cnc2ccc(NC(=O)c3cc4cc(F)ccc4n3Cc3cccc(F)c3)cc21	
92 to 95	CN1CCCc2ccc(NC(=O)c3cc4ccccc4n3-c3cccc(C(F)(F)F)c3)cc21 [Compound 2, N-(1-methyl-1,2,3,4-tetrahydroquinol-7-yl)-1-[3-(trifluoromethyl)phenyl]-1H-indole-2-carboxamide]	
201 to 202	Cc1nc2cc(NC(=O)c3cc4cc(F)ccc4n3Cc3cccc(F)c3)ccc2s1	
214 to 216	O=C1Cc2ccc(NC(=O)c3cc4ccccc4n3-c3cccc(C(F)(F)F)c3)cc2ON1 [Compound 11, N-(3-oxo-2H-benzoxazin-7-yl)-1-[3-(trifluoromethyl)phenyl]-1H-indole-2-carboxamide]	
208 to 210	O=C(Nc1ccc2ncccc2c1)c1cc2cc(F)ccc2n1Cc1cccc(F)c1	
255 to 256	COc1ccc2cc(C(=O)Nc3ccc4c(c3)NC(=O)CC4)n(Cc3ccc(F)cc3)c2c1 [Compound 53, N-(2-oxo-3,4-dihydroquinol-7-yl)-6-methoxy-1-[(4-fluorophenyl)methyl]-1H-indole-2-carboxamide]	
270 to 272	O=C(Nc1ccc2ccncc2c1)c1cc2cc(F)ccc2n1Cc1cccc(F)c1 (as salt: HCl)	
188 to 189	Cc1nc2cc(NC(=O)c3cc4cc(F)ccc4n3Cc3cccc(F)c3)ccc2o1	
248 to 251	Cn1cnc2cc(NC(=O)c3cc4cc(F)ccc4n3Cc3cccc(F)c3)ccc21	
167 to 174	O=C(Nc1ccc2[nH]nnc2c1)c1cc2cc(C(F)(F)F)ccc2n1Cc1cccc(F)c1	

melting point [°C]	SMILES	inhibition at 0.001 µM (TRPV1 receptor) [%]
195 to 200	Cc1nc2ccc(NC(=O)c3cc4cc(F)ccc4n3Cc3cccc(F)c3)cc2[nH]1 (as salt: HCl)	
139 to 141	O=C(Nc1ccc2cnccc2c1)c1cc2cc(F)ccc2n1Cc1cccc(F)c1	
220 to 221	O=C(Nc1ccc2[nH]nnc2c1)c1cc2cc(F)ccc2n1Cc1cccc(F)c1	
206 to 207	O=C(Nc1cccc2cnccc12)c1cc2cc(F)ccc2n1Cc1cccc(F)c1	
178 to 180	CC1C(=O)NOc2ccc(NC(=O)c3cc4ccccc4n3-c3cccc(C(F)(F)F)c3)cc21 (stereo not drawn) [Compound 6, N-(4-methyl-3-oxo-2H-benzoxazin-6-yl)-1-[3-(trifluoromethyl)phenyl]-1H-indole-2-carboxamide]	
167 to 168	O=C(Nc1ccc2ncsc2c1)c1cc2cc(F)ccc2n1Cc1cccc(F)c1	
187 to 189	CCc1nc2cc(NC(=O)c3cc4cc(C(F)(F)F)ccc4n3Cc3cccc(F)c3)ccc2o1 [Compound 46, N-(2-ethylbenzoxazol-5-yl)-5-trifluoromethyl-1-[(3-fluorophenyl)methyl]-1H-indole-2-carboxamide]	
90 to 92	O=C(Nc1ccc2c(c1)CCNO2)c1cc2ccccc2n1-c1cccc(C(F)(F)F)c1 [Compound 10, N-(2,3-dihydrobenzoxazin-6-yl)-1-[3-(trifluoromethyl)phenyl]-1H-indole-2-carboxamide]	
	Cn1ncc2cc(NC(=O)c3cc4cc(C(F)(F)F)ccc4n3Cc3cccc(F)c3)ccc21 [Compound 19, N-(1-methyl-1H-indazol-5-yl)-5-trifluoromethyl-1-[(3-fluorophenyl)methyl]-1H-indole-2-carboxamide]	48
140 to 143	O=C(Nc1ccc2c(c1)NCCC2)c1cc2ccccc2n1-c1cccc(C(F)(F)F)c1 [Compound 4, N-(1,2,3,4-tetrahydroquinol-7-yl)-1-[3-(trifluoromethyl)phenyl]-1H-indole-2-carboxamide]	
298 to 299	O=C1CCc2ccc(NC(=O)c3cc4cc(C(F)(F)F)ccc4n3Cc3cccc(F)c3)cc2N1 [Compound 41, N-(2-oxo-3,4-dihydroquinol-7-yl)-5-trifluoromethyl-1-[(3-fluorophenyl)methyl]-1H-indole-2-carboxamide]	
146 to 147	CN1CCCc2ccc(NC(=O)c3cc4cc(C(F)(F)F)ccc4n3Cc3cccc(F)c3)cc21 [Compound 27, N-(1-methyl-1,2,3,4-tetrahydroquinol-7-yl)-5-trifluoromethyl-1-[(3-fluorophenyl)methyl]-1H-indole-2-carboxamide]	
192 to 193	CS(=O)(=O)N1CCc2cc(NC(=O)c3cc4cc(F)ccc4n3Cc3cccc(F)c3)ccc21 [Compound 44, N-(1-methylsulfonylindolin-5-yl)-5-fluoro-1-[(3-fluorophenyl)methyl]-1H-indole-2-carboxamide]	
182 to 183	Cc1nc2cc(NC(=O)c3cc4cc(C(F)(F)F)ccc4n3Cc3cccc(F)c3)ccc2o1	
141 to 143	O=C(Nc1ccc2occc2c1)c1cc2ccccc2n1-c1cccc(C(F)(F)F)c1 [Compound 8, N-(benzofuran-5-yl)-1-[3-(trifluoromethyl)phenyl]-1H-indole-2-carboxamide]	
191 to 192	O=C(Nc1ccc2ncsc2c1)c1cc2cc(C(F)(F)F)ccc2n1Cc1cccc(F)c1	
194 to 195	O=C(Nc1ccc2oc(-c3ccccc3)nc2c1)c1cc2cc(C(F)(F)F)ccc2n1Cc1cccc(F)c1 [Compound 47, N-(2-phenylbenzoxazol-5-yl)-5-trifluoromethyl-1-[(3-fluorophenyl)methyl]-1H-indole-2-carboxamide]	
191 to 192	Cc1nc2cc(NC(=O)c3cc4cc(C(F)(F)F)ccc4n3Cc3cccc(F)c3)ccc2s1	
93 to 95	O=C(Nc1cccc2c1NCCC2)c1cc2ccccc2n1-c1cccc(C(F)(F)F)c1 [Compound 16, N-(1,2,3,4-tetrahydroquinol-8-yl)-1-[3-(trifluoromethyl)phenyl]-1H-indole-2-carboxamide]	
